According to publication PMC8174188 (Neuron, 2021):
Each block holds one molecule with its values, some of them ahead of it.

Tests used:
[1] = target: T1, dSARM1^ARM (Drosophila SARM1 ARM domain) (Drosophila melanogaster, UniProt Q6IDD9); assay: ITC; format: binding
T1 sequence (Q6IDD9 307-678): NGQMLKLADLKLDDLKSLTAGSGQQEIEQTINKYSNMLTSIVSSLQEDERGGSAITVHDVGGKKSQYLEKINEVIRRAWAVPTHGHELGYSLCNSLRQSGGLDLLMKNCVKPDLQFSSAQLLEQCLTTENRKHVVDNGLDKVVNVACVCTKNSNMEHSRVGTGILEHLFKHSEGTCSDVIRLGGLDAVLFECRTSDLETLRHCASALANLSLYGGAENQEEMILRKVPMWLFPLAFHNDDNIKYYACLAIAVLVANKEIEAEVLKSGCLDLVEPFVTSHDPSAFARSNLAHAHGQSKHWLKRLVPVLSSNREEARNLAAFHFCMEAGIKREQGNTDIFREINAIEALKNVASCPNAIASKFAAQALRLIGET

[2] = target: dSARM1^ARM (Drosophila SARM1 ARM domain) (Drosophila melanogaster, UniProt Q6IDD9, R437A); assay: ITC; format: binding
dSARM1^ARM (Drosophila SARM1 ARM domain) (Drosophila melanogaster, UniProt Q6IDD9, R437A), sequence (Q6IDD9 307-678 R437A): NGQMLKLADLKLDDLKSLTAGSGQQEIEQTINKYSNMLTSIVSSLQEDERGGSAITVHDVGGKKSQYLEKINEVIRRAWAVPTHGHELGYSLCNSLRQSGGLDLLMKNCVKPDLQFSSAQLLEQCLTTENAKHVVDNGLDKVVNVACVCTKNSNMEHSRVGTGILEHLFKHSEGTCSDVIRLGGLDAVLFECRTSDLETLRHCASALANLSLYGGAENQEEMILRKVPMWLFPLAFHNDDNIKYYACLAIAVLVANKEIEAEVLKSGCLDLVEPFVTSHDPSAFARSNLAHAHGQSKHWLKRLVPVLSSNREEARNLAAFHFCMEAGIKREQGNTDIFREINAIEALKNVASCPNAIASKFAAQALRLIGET

cryo-EM structure = target: the molecule itself; assay: cryo-EM structure

Kd [1]: 54.2 ± 6.4 µM
Molecule: NC(=O)c1ccc[n+]([C@@H]2O[C@H](COP(=O)([O-])OP(=O)(O)OC[C@H]3O[C@@H](n4cnc5c(N)ncnc54)[C@H](O)[C@@H]3O)[C@@H](O)[C@H]2O)c1 [NAD^+]

Molecule: NC(=O)c1ccc[n+]([C@@H]2O[C@H](COP(=O)([O-])O)[C@@H](O)[C@H]2O)c1 [NMN]
Kd [2]: 12.45 ± 0.03 µM

B1: human SARM1 lacking the mitochondrial localisation signal (residues 28-724) (enzyme, UniProt Q6SZW1-1 28-724, looked up)
chain: LAVPGPDGGGGTGPWWAAGGRGPREVSPGAGTEVQDALERALPELQQALSALKQAGGARAVGAGLAEVFQLVEEAWLLPAVGREVAQGLCDAIRLDGGLDLLLRLLQAPELETRVQAARLLEQILVAENRDRVARIGLGVILNLAKEREPVELARSVAGILEHMFKHSEETCQRLVAAGGLDAVLYWCRRTDPALLRHCALALGNCALHGGQAVQRRMVEKRAAEWLFPLAFSKEDELLRLHACLAVAVLATNKEVEREVERSGTLALVEPLVASLDPGRFARCLVDASDTSQGRGPDDLQRLVPLLDSNRLEAQCIGAFYLCAEAAIKSLQGKTKVFSDIGAIQSLKRLVSYSTNGTKSALAKRALRLLGEEVPRPILPSVPSWKEAEVQTWLQQIGFSKYCESFREQQVDGDLLLRLTEEELQTDLGMKSGITRKRFFRELTELKTFANYSTCDRSNLADWLGSLDPRFRQYTYGLVSCGLDRSLLHRVSEQQLLEDCGIHLGVHRARILTAAREMLHSPLPCTGGKPSGDTPDVFISYRRNSGSQLASLLKVHLQLHGFSVFIDVEKLEAGKFEDKLIQSVMGARNFVLVLSPGALDKCMQDHDCKDWVHKEIVTALSCGKNIVPIIDGFEWPEPQVLPEDMQAVLTFNGIKWSHEYQEATIEKIIRFLQGRSSRDSSAGSDTSLEGAAPMGPT
stoichiometry N (cryo-EM structure): 8
